This assay has as its target recombinant JAK3 (catalytic domain, aa 781-1124) (Homo sapiens (Human), UniProt P52333). The experiment in a line: JAK3 Caliper Peptide Phosphorylation Assay. Type of assay: biochemical. Particulars: fluorescently labeled Srctide substrate 1 uM; ATP at 1×Km (2 uM); 2 hours at 25° C. Here is the method: JAK3 Caliper Peptide Phosphorylation Assay
Phosphorylation of the appropriate peptide substrate (fluorescently labeled Srctide) by recombinant JAK3 (catalytic domain, aa 781-1124) was measured in the presence and absence of different concentrations of test compounds. Test compound, enzyme, fluorescently labeled substrate, and cofactors (ATP and Mg^2+) were combined in a well of a microtiter plate and incubated for 2 hours at 25° C. The composition of the reaction buffer was 100 mM HEPES pH 7.5, 5 mM MgCl2, 0.01% Triton-X 100, 0.1% Bovine Serum Albumin, and 1% DMSO. Enzyme concentration in the final reaction mixture was 0.5 nM while peptide substrate was at 1 uM. ATP was used at 1×Km concentration corresponding to 2 uM. Serial dilutions (3-fold steps) of compounds were prepared in DMSO. At the end of the incubation, the reaction was stopped by the addition of 20 mM EDTA. Substrate and product (i.e. phosphorylated substrate) were separated electrophoretically and both were quantified by fluorescence intensity using the microfluidics-based LabChip 3000 Drug Discovery System from Caliper Life Sciences. Conversion for each well was calculated and plotted as function of test compound concentration. IC50 value was determined by fitting the data to a 4-parameter logistic model by non-linear regression (XLfit model 205). In every assay, Staurosporine was tested in the same manner as reference compound. Selectivity for JAK3 was determined using commercially available kinase cross-screening services (DiscoveRx, San Diego, Calif.).
recombinant JAK3 (catalytic domain, aa 781-1124), sequence (P52333 781-1124): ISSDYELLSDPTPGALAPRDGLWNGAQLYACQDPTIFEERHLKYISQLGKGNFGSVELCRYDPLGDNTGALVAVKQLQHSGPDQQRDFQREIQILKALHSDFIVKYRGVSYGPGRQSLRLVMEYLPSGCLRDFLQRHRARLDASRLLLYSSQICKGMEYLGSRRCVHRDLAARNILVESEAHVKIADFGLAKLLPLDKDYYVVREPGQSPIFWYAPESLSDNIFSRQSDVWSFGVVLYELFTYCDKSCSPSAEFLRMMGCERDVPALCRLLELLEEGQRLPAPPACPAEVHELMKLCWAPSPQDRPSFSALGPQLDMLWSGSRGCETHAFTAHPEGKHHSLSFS
By IC50 is commonly meant the concentration that gives 50% inhibition. Consider `CN(C)C(=O)C(C#N)=Cc1cccc(Oc2cnc3[nH]cc(C(=O)C(C)(C)C)c3n2)c1` [compound 100, 2-cyano-N,N-dimethyl-3-(3-((7-pivaloyl-5H-pyrrolo[2,3-b]pyrazin-2-yl)oxy)phenyl)acrylamide], for which the IC50 was above 5000 nM. The figure for `CN(C)C(=O)C(C#N)=Cc1ccc(N(C)c2ncnc3[nH]ccc23)cc1` [compound 7, 2-cyano-N,N-dimethyl-3-(4-(methyl(7H-pyrrolo[2,3-d]pyrimidin-4-yl)amino)phenyl)acrylamide] is above 1000 nM; for `CN1CCN(C(=O)C(C#N)=Cc2ccc(Nc3cnc4[nH]cc(C(=O)C(C)(C)C)c4n3)cc2)CC1` [compound 64, 2-(4-methylpiperazine-1-carbonyl)-3-(4-(7-pivaloyl-5H-pyrrolo[2,3-b]pyrazin-2-ylamino)phenyl)acrylonitrile] it is 0.2 nM.

For the compound `CN(C)C(=O)C(C#N)=Cc1cccc(Oc2cnc3[nH]ccc3n2)c1` [compound 31, 3-(3-((5H-pyrrolo[2,3-b]pyrazin-2-yl)oxy)phenyl)-2-cyano-N,N-dimethylacrylamide], the half-maximal inhibitory concentration (IC50) was above 1000 nM.

As to `CN(C)C(=O)C(C#N)=Cc1cccc(-c2ncnc3[nH]ccc23)c1` [compound 1, 3-(3-(7H-pyrrolo[2,3-d]pyrimidin-4-yl)phenyl)-2-cyano-N,N-dimethylacrylamide], the 50% inhibitory concentration (IC50) worked out at 305 nM.

For `CC(C)NC(=O)c1c[nH]c2ncc(Nc3ccc(C=C(C#N)C(=O)N4CCNCC4)cc3)nc12` [compound 83, 2-((4-(2-cyano-3-oxo-3-(piperazin-1-yl)prop-1-en-1-yl)phenyl)amino)-N-isopropyl-5H-pyrrolo[2,3-b]pyrazine-7-carboxamide], the IC50 was found to be 0.2 nM. `CN(C)C(=O)C(C#N)=Cc1ccc(Nc2cnc3[nH]cc(C(=O)C(C)(C)C)c3n2)cc1` [compound 57, 2-cyano-N,N-dimethyl-3-(4-((7-pivaloyl-5H-pyrrolo[2,3-b]pyrazin-2-yl)amino)phenyl)-acrylamide]: the half-maximal inhibitory concentration (IC50) is 1 nM. `CN(C)C(=O)C(C#N)=Cc1ccc(Nc2cnc3[nH]cc(C(=O)C(C)(C)C)c3n2)c(F)c1` [compound 69, 2-cyano-3-(3-fluoro-4-((7-pivaloyl-5H-pyrrolo[2,3-b]pyrazin-2-yl)amino)phenyl)-N,N-dimethylacrylamide]: the IC50 was found to be 0.5 nM. As for `CN(C)C(=O)C(C#N)=Cc1ccc(-c2cnc3[nH]cc(C(=O)C(C)(C)C)c3n2)cc1` [compound 96, 2-cyano-N,N-dimethyl-3-(4-(7-pivaloyl-5H-pyrrolo[2,3-b]pyrazin-2-yl)phenyl)acrylamide], the 50% inhibitory concentration (IC50) came to 680 nM. With `CN(C)C(=O)C(C#N)=Cc1cc(Nc2ncnc3[nH]ccc23)ccc1Cl` [compound 17, 3-(5-((7H-pyrrolo[2,3-d]pyrimidin-4-yl)amino)-2-chlorophenyl)-2-cyano-N,N-dimethylacrylamide] the figure was 1770 nM; with `CN(C)C(=O)C(C#N)=Cc1cccc(-c2cnc3[nH]cc(C(=O)C(C)(C)C)c3n2)c1` [compound 97, 2-cyano-N,N-dimethyl-3-(3-(7-pivaloyl-5H-pyrrolo[2,3-b]pyrazin-2-yl)phenyl)acrylamide], 104 nM. With `CCNC(=O)C(C#N)=Cc1ccc(Nc2cnc3[nH]cc(C(=O)C(C)(C)C)c3n2)cc1` [compound 77, 2-cyano-3-(4-((7-pivaloyl-5H-pyrrolo[2,3-b]pyrazin-2-yl)amino)phenyl)-N-ethylacrylamide] the figure was 1 nM; with `CC(C)NC(=O)c1c[nH]c2ncc(Oc3cccc(C=C(C#N)C(=O)N(C)C)c3)nc12` [compound 51, 2-(3-(2-cyano-3-(dimethylamino)-3-oxoprop-1-en-1-yl)phenoxy)-N-isopropyl-5H-pyrrolo[2,3-b]pyrazine-7-carboxamide], 1150 nM. Regarding `CN(C(=O)C(C#N)=Cc1ccc(Nc2cnc3[nH]cc(C(=O)C(C)(C)C)c3n2)cc1)c1ccccc1` [compound 85, 2-cyano-N-methyl-N-phenyl-3-(4-((7-pivaloyl-5H-pyrrolo[2,3-b]pyrazin-2-yl)amino)phenyl)-acrylamide], the IC50 amounted to 5.5 nM.

Take `CC(C)NC(=O)c1c[nH]c2ncc(Nc3ccc(C=C(C#N)C(=O)N4CCOCC4)cc3)nc12` [compound 80, N-(isopropyl)-2-((4-(2-cyano-3-morpholino-3-oxoprop-1-en-1-yl)phenyl)amino)-5H-pyrrolo[2,3-b]pyrazine-7-carboxamide]: the concentration for half-maximal inhibition (IC50) turned out to be 0.7 nM. Regarding `CC(C)NC(=O)c1c[nH]c2ncc(Nc3ccc(C=C(C#N)C(=O)N(C)C)cc3)nc12` [compound 50, 2-((4-(2-cyano-3-(dimethylamino)-3-oxoprop-1-en-1-yl)phenyl)amino)-N-isopropyl-5H-pyrrolo[2,3-b]pyrazine-7-carboxamide], the IC50 came out at 0.2 nM. Regarding `CCN1C(=O)SC(=Cc2ccc(Nc3cnc4[nH]cc(C(=O)C(C)(C)C)c4n3)cc2)C1=O` [compound 78, 3-ethyl-5-(4-((7-pivaloyl-5H-pyrrolo[2,3-b]pyrazin-2-yl)amino)benzylidene)thiazolidine-2,4-dione], the IC50 stood at 33.5 nM. With `CC(C)(C)C(=O)c1c[nH]c2ncc(Nc3ccc(C=C4SC(=O)N(CCN)C4=O)cc3)nc12` [compound 89, 3-(2-aminoethyl)-5-(4-((7-pivaloyl-5H-pyrrolo[2,3-b]pyrazin-2-yl)amino)benzylidene)thiazolidine-2,4-dione] the figure was 3 nM; with `CN(C)C(=O)C(C#N)=Cc1cccc(Nc2cnc3[nH]ccc3n2)c1` [compound 29, 3-(3-((5H-pyrrolo[2,3-b]pyrazin-2-yl)amino)phenyl)-2-cyano-N,N-dimethylacrylamide], above 1000 nM; with `CN(C)C(=O)C(C#N)=Cc1ccc(Nc2cnc3[nH]cc(C(=O)C(C)(C)C)c3n2)s1` [compound 73, 2-cyano-N,N-dimethyl-3-(5-((7-pivaloyl-5H-pyrrolo[2,3-b]pyrazin-2-yl)amino)thiophen-2-yl)acrylamide], 210 nM. With `CC(C)NC(=O)c1c[nH]c2ncc(-c3cccc(C=C(C#N)C(=O)N(C)C)c3)nc12` [compound 47, 2-(3-(2-cyano-3-(dimethylamino)-3-oxoprop-1-en-1-yl)phenyl)-N-isopropyl-5H-pyrrolo[2,3-b]pyrazine-7-carboxamide], the 50% inhibitory concentration (IC50) amounted to 13 nM. With `CN(C)C(=O)C(C#N)=Cc1ccc(Nc2cnc3[nH]cc(C(=O)NC(C)(C)C)c3n2)cc1` [compound 71, N-(tert-butyl)-2-((4-(2-cyano-3-(dimethylamino)-3-oxoprop-1-en-1-yl)phenyl)amino)-5H-pyrrolo[2,3-b]pyrazine-7-carboxamide] the figure was 0.2 nM. With `CC(C)(C)C(=O)c1c[nH]c2ncc(-c3cccc(NC(=O)C(C#N)=CC4CC4)c3)nc12` [compound 102, 2-cyano-3-cyclopropyl-N-(3-(7-pivaloyl-5H-pyrrolo[2,3-b]pyrazin-2-yl)phenyl)acrylamide] the figure was 345 nM; with `CC(C)(C)C(=O)c1c[nH]c2ncc(Nc3ccc(C=C(C#N)c4nccs4)cc3)nc12` [compound 82, 3-(4-((7-pivaloyl-5H-pyrrolo[2,3-b]pyrazin-2-yl)amino)phenyl)-2-(thiazol-2-yl)acrylonitrile], 38.3 nM; with `Cc1c(C=C(C#N)C(=O)N(C)C)cccc1Nc1ncnc2[nH]ccc12` [compound 16, 3-(3-((7H-pyrrolo[2,3-d]pyrimidin-4-yl)amino)-2-methylphenyl)-2-cyano-N,N-dimethylacrylamide], 1270 nM.

The record behind these values is patent US9187487B2, “Azaindole derivatives as tyrosine kinase inhibitors” (PRINCIPIA BIOPHARMA, INC., priority 2011, dated 2015).
